The text below walks through data of US20240398783A1, “Compounds and Pharmaceutical Compositions Comprising Inhibitors of Amyloid Peptide Interactions with Glycosaminoglycans, Methods of Treatment and Use Thereof” (Gismo Therapeutics, Inc., priority 2021, published 2024).

Assay [1] deals with T1, Amyloid-beta(1-42) oligomer binding to heparin (HS-GAG) (Homo sapiens, UniProt P05067).
T1 construct: Beta-amyloid (1-42) was purchased from rPeptide (Cat. No. A1163); purchased rPeptide A1163
Description: Inhibition of Amyloid-beta(1-42) oligomer binding to immobilized heparin-BSA (ELISA). Also noted: species or system porcine. The following applies: for IC50: co-incubation on heparin-BSA plates, read-out: Abeta42/Heparin Activity (IC-50); for inhibition at 30 µM: read-out: Abeta42/Heparin Activity (% inhibition class). The method, then: (§1) Porcine intestinal mucosa heparin conjugated to Bovine Serum Albumin (Heparin-BSA) was prepared as described (Najjam, S. et al. 1997, Cytokine 12, 1013-1022). Heparin is a sulfated HS-GAG and is commonly used as a HS-GAG in biochemical and binding assays (Lindahl, U. and Kjellen, L. (2013) ibid). Heparin-BSA at 0.01 mg/ml in Phosphate Buffered Saline (PBS; pH 7.4) was added to a 96 well polystyrene ELISA plate (NUNC Cat. No. 449824; 100 μl per well) and incubated Over Night (ON) at 4 degrees Celsius. For negative controls, ELISA plates were coated with BSA instead of Heparin-BSA, using the same procedure. Following the incubation, the plate was washed consecutively, by immersion, with de-ionized water and PBS (pH 7.4). The ELISA plate was then blocked with nonfat milk (2%, 200 μl per well) for 2 hours at Room Temperature (RT) with gentle shaking. Following blocking, the plate was washed with de-ionized water then PBS (pH 7.4). GBAPs were dissolved and diluted in PBS (pH 6.5, supplemented with 0.1% BSA) at desired concentrations, added to the ELISA plates containing immobilized Heparin-BSA (100 μl per well) and incubated for 2 hours at RT with gentle shaking. Following incubation, the plate was washed with de-ionized water and three times with PBS (pH 6.5) plus Tween. Bound GBAP was detected by a monoclonal antibody specific for that GBAP, followed by incubation with secondary antibody conjugated to horseradish peroxidase (HRP). Antibody was diluted in PBS (pH 6.5 supplemented with 1% BSA). Following each incubation with antibody, the plate was washed with de-ionized water and three times with PBS (pH 6.5) wash buffer containing 0.1% Tween. The peroxidase substrate chromogen, TMB (Dako Cat. No. S1599) was added (100 μl per well) to the ELISA plate and incubated at room temperature. After 5 minutes ELISA Stop Solution (hydrochloric acid 1N, sulfuric acid 3N) was added (100 μl per well) to stop the peroxidase catalyzed colorimetric reaction. The Optical Density of the samples was measured at 450 nm using an ELISA plate reader (BioTek Synergy H1). Following color development, the % inhibition compared to control (BSA-coated plates) was determined. IC-50s were calculated using GraphPad Prism software.
The assay was performed as described in Example 43, with the following modifications. Following to coating the plates with Heparin-BSA, plates were washed as described. The compounds were dissolved in DMSO at 10 mM final concentration and further diluted prior to assay. DMSO concentration in the screening well was up to 2%. Individual compounds were co-incubated with Beta-amyloid peptides on plates containing immobilized heparin. Beta-amyloid (1-42) was purchased from rPeptide (Cat. No. A1163) and used to prepare oligomers according to Stine et al., 2003 (J Biol Chem. 278(13):11612-22) as follows. 1,1,1,3,3,3-Hexafluoro-2-propanol- (HFIP; Sigma Cat. No. 105228)-treated Beta amyloid (1-42) was dissolved in dry DMSO (Sigma Cat. No. D2650) to 5 mM concentration. Dissolved Beta amyloid (1-42) was then diluted to 100 μM in ice-cold cell culture medium (phenol red-free Ham's F-12; Caisson Labs, Cat. No. HFL05), followed immediately by vortexing for 30 seconds, and incubating at 4 degrees Celsius for 24 h. Resulting Beta amyloid (1-42) oligomers were centrifuged at 12,000 rpm for 10 min at 4 degree Celsius to remove aggregates. Oligomers were then quickly frozen and kept in aliquots at −80 degrees Celsius. Beta-amyloid (1-40) from rPeptide (Cat No. A1153) was dissolved in DMSO, quickly frozen and kept in aliquots at −80 degrees Celsius. Beta-amyloid (1-42) oligomers or Beta-amyloid (1-40) diluted in PBS (pH 6.5, supplemented with BSA, 0.1%) were added to the ELISA plate (100 μl per well) and incubated for 2 hours at RT with gentle shaking. Following the incubation, the plate was washed with de-ionized water and three times with PBS (pH 6.5) plus Tween. […]

For assay [2], the target named is Alpha-Synuclein Protofibril binding to heparin (HS-GAG) (Homo sapiens, UniProt P37840). Description: Inhibition of alpha-synuclein protofibril binding to immobilized heparin-BSA (ELISA). Also noted: species or system porcine. As to conditions: for inhibition at 30 µM: read-out: Alpha-Synuclein/Heparin Activity (% inhibition class). The method, then:
as §1
The assay was performed as described in Example 43, with the following modifications. Following to coating the plates with Heparin-BSA, plates were washed as described. The compounds were dissolved in DMSO at 10 mM final concentration and further diluted prior to assay. DMSO concentration in the screening well was up to […]. Individual compounds were co-incubated with alpha-synuclein on plates containing immobilized heparin. Alpha-synuclein purchased from rPeptide (Cat. No. S1001) was used to prepare protofibrils as described in Ihse et al., 2017. Alpha-synuclein was dissolved in PBS (pH7.4) to a concentration of 140 μM (˜2 mg/ml), and incubated for 7 days at 37° C. with rotary agitation (400 rpm). Resulting fibrils were sonicated for 10 minutes in ultrasonic water bath, quickly frozen and kept in aliquots at −80 degrees Celsius. Protofibrillar alpha-synuclein diluted in PBS (pH 6.5, supplemented with BSA, 0.1%) was added to the ELISA plate (100 μl per well) and incubated for 2 hours at RT with gentle shaking. Following the incubation, the plate was washed with de-ionized water and three times with PBS (pH 6.5) plus Tween. Bound Alpha-synuclein was detected by Anti-Alpha-synuclein Monoclonal Antibody 211 (Santa Cruz Cat. No. sc-12767), followed by secondary anti-IgG antibody conjugated to HRP (R&D System, Cat. No. HAF007). Following to color development with TMB, as described in Example 43, the Optical Density of the samples was measured at 450 nm using an ELISA plate reader. Following color development, the % inhibition compared to control (no compound, DMSO control) for every compound was determined.
An example of inhibition curve is shown in FIG. 1 for Inhibitor Compounds 22 and 24. […]

The mark [3] stands for this setting: alpha-synuclein protofibrils, heparin-BSA, read-out: Alpha-Synuclein/Heparin Activity (IC-50).
The mark [4] stands for this setting: Alpha-Synuclein/Heparin Activity (IC-50), alpha-synuclein protofibrils, heparin-BSA.
The mark [5] stands for this setting: 30 μM compound, alpha-synuclein protofibrils, heparin-BSA.
Setting [6] is: 30 μM compound, Abeta(1-42) oligomers, heparin-BSA.

The structures appear in SMILES notation. Counter-ions that a name gives are not always drawn. Like-named read-outs stand apart in the source and are kept apart here. A value given as a limit tells only on which side of the number the result lay.

T1 sequence (P05067 672-713): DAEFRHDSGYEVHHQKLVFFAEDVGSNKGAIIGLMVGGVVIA

Turning to `Cc1cc(-n2ccnc2)ccc1/C=N/Nc1ccnc2cc(Cl)ccc12` [Compound 1, (E)-4-((E)-(4-(1H-imidazol-1-yl)-2-methylbenzylidene)hydrazono)-7-chloro-1,4-dihydroquinoline], the IC50 in assay [1] (Abeta(1-42) oligomers) came to 2.3 µM; in assay [2] (setting [3]) it was 3.19 µM.
`Cc1ncn(-c2ccc(/C=N/Nc3ccnc4cc(Cl)ccc34)cc2)c1C` [Compound 2, (E)-7-chloro-4-((E)-(4-(4,5-dimethyl-1H-imidazol-1-yl)benzylidene)hydrazono)-1,4-dihydroquinoline]: in assay [1] (Abeta(1-42) oligomers), the IC50 came to 30.7 µM. Besides, the inhibition at 30 µM in assay [2] is less than 30%.
On to `Clc1ccc2c(N/N=C/c3ccc(-n4cccn4)cc3)ccnc2c1` [Compound 3, (E)-4-((E)-(4-(1H-pyrazol-1-yl)benzylidene)hydrazono)-7-chloro-1,4-dihydroquinoline], for which the IC50 in assay [1] (Abeta(1-42) oligomers) worked out at 2.36 µM; in assay [2] (setting [4]), 1.7 µM.
`C[N+](C)(C)Cc1ccc(/C=N\Nc2ccnc3ccc(Cl)cc23)cc1` [Compound 4, (Z)-1-(4-((2-(6-chloroquinolin-4-yl)hydrazineylidene)methyl)phenyl)—N,N,N-trimethylmethanaminium iodide]: the IC50 in assay [1] (Abeta(1-42) oligomers) came out at 42.7 µM. In assay [2] (setting [5]), the inhibition at 30 µM is more than 30%.
On to `Fc1ccc2c(N/N=C/c3ccc(-n4ccnc4)cc3)ccnc2c1` [Compound 5, (E)-4-(2-(4-(1H-imidazol-1-yl)benzylidene)hydrazinyl)-7-fluoroquinoline], for which the inhibition at 30 µM in assay [1] and in assay [2] was less than 30% in each case.
As to `Fc1ccc2c(N/N=C/c3ccc(CN4CCOCC4)cc3)ccnc2c1` [Compound 6, (E)-4-(4-((2-(7-fluoroquinolin-4-yl)hydrazono)methyl)benzyl)morpholine], the inhibition at 30 µM in assay [1] (setting [6]) and in assay [2] (setting [5]) was more than 30% each time.
For the compound `CN1CCN(Cc2ccc(/C=N/Nc3ccnc4cc(Cl)ccc34)cc2)CC1` [Compound 7, (E)-7-chloro-4-(2-(4-((4-methylpiperazin-1-yl)methyl)benzylidene)hydrazinyl)quinolone], the inhibition at 30 µM in assay [1] (setting [6]) was less than 30%. Further, the IC50 in assay [2] (setting [4]) amounted to 1.41 µM.
As to `C(=N\Nc1ccc2c3c(cccc13)CC2)/c1ccc(-n2ccnc2)cc1` [Compound 8, (E)-1-(4-((2-(1,2-dihydroacenaphthylen-5-yl)hydrazineylidene)methyl)phenyl)-1H-imidazole], the inhibition at 30 µM in assay [1] and in assay [2] was less than 30% each time.
Regarding `C[n+]1ccc(/C=N\Nc2ccnc3ccccc23)cc1` [Compound 9, (Z)-1-methyl-4-((2-(quinolin-4-yl)hydrazono)methyl)pyridin-1-ium iodide], the inhibition at 30 µM in assay [1] (setting [6]) and in assay [2] (setting [5]) was less than 30% in each case.
Turning to `O=S1(=O)CCN(Cc2ccc(/C=N/Nc3ccnc4cc(F)ccc34)cc2)CC1` [Compound 10, (E)-4-(4-((2-(7-fluoroquinolin-4-yl)hydrazono)methyl)benzyl)thiomorpholine 1,1-dioxide], the inhibition at 30 µM in assay [1] (setting [6]) and in assay [2] (setting [5]) was less than 30% each time.
On to `COc1cc2nccc(NN=Cc3ccc(-n4ccnc4)c(C)c3)c2cc1OC` [Compound 11, 4-(2-(4-(1H-imidazol-1-yl)-3-methylbenzylidene)hydrazineyl)-6,7-dimethoxyquinoline hydrochloride], for which the inhibition at 30 µM in assay [1] and in assay [2] was less than 30% in each case.
For the compound `COc1ccc2c(NN=Cc3ccc(-n4ccnc4)c(C)c3)ccnc2c1` [Compound 12, 4-(2-(4-(1H-imidazol-1-yl)-3-methylbenzylidene)hydrazineyl)-7-methoxyquinoline], the inhibition at 30 µM in assay [1] and in assay [2] was less than 30% in each case.
As for `COc1cc2nccc(N/N=C/c3ccc(-n4ccnc4)c(OC)c3)c2cc1OC` [Compound 13, (E)-4-(2-(4-(1H-imidazol-1-yl)-3-methoxybenzylidene)hydrazineyl)-6,7-dimethoxyquinoline phosphate], the inhibition at 30 µM in assay [1] was less than 30%. Besides, the IC50 in assay [2] (setting [4]) amounted to 35.2 µM.
As to `Clc1ccc2c(N/N=C/c3ccc(-n4ccnc4)nc3)ccnc2c1` [Compound 14, (E)-4-(2-((6-(1H-imidazol-1-yl)pyridin-3-yl)methylene)hydrazineyl)-7-chloroquinoline hydrochloride], the IC50 in assay [1] (Abeta(1-42) oligomers) is 8.14 µM; in assay [2] (setting [4]) it was 2.02 µM.
The matching figures for `Cc1ncn(-c2ccc(/C=N\Nc3ncnc4cc(Cl)ccc34)cn2)c1C` [Compound 15, 7-chloro-4-(2-((6-(4,5-dimethyl-1H-imidazol-1-yl)pyridin-3-yl)methylene)hydrazineyl)quinazoline hydrochloride]: 18.9 µM and 5.22 µM.
The matching figures for `C/C(=N\Nc1ncnc2cc(Cl)ccc12)c1ccc(-n2cnc(C)c2C)nc1` [Compound 16, 7-chloro-4-(2-(1-(6-(4,5-dimethyl-1H-imidazol-1-yl)pyridin-3-yl)ethylidene)hydrazineyl)quinazoline phosphate]: 5.48 µM and 3.21 µM.
Take `C/C(=N\Nc1ncnc2cc(Cl)ccc12)c1ccc(-n2cc[n+](C)c2)nc1` [Compound 17, (E)-1-(5-(1-(2-(7-chloroquinazolin-4-yl)hydrazineylidene)ethyl)pyridin-2-yl)-3-methyl-1H-imidazol-3-ium iodide phosphoric acid salt]: the results for the IC50 in assay [1] (Abeta(1-42) oligomers) and in assay [2] (setting [4]) were 11.7 µM and 13.5 µM, respectively.
Consider `C/C(=N\Nc1ncnc2cc(Cl)ccc12)c1ccc(-n2cc(C)nc2C)nc1` [Compound 18, (E)-7-chloro-4-(2-(1-(6-(2,4-dimethyl-1H-imidazol-1-yl)pyridin-3-yl)ethylidene)hydrazineyl)quinazoline phosphoric acid salt], for which the IC50 is 13.6 µM in assay [1] (Abeta(1-42) oligomers) and 1.71 µM in assay [2] (setting [3]).
